Broadly, the GI50 is the concentration at which growth is held to half of that of the control.

From patent US20210252008A1, “BIARYL COMPOSITIONS AND METHODS FOR MODULATING A KINASE CASCADE” (Athenex, Inc., priority 2004, published 2021) come the findings set out here.

Experiment [1] relates to Chinchillas, noise-induced hearing loss. As to the kind of experiment: Protection against noise-induced hearing loss. It is filed as in vivo. The note with it: chinchilla; round window application; 4 kHz band noise 105 dB SPL four hours; day 1, 7, 21; in most cases. The procedure:
Chinchillas (N=6) were used in studies of noise-induced hearing loss. The animals' hearing sensitivity was measured using standard electrophysical techniques before the experimental manipulation. […] Animals were anesthetized, the auditory bullae were opened, and the left and right cochleas were visualized. The round window leading to the scala tympani of the cochlea was used as the access point for drug application. Animals were treated with KX1-004, KX1-141, KX1-329 or KX2-328 (a non-ATP competitive inhibitor from Astrazeneca), emulsified in DMSO, in […] of saline solution, which was placed on the round window of one ear. A control solution of 3 mM DMSO in […] of saline solution was placed on the round window of the other ear. The solution was allowed to set on the round window for 30 minutes, then the auditory bullae were closed. […] Following the noise exposure, the animals' hearing was tested at day 1, day 7, and day 21 to determine evoked potential threshold shifts. Permanent threshold shift was assessed at day 21.
FIGS. 10-12 show the average threshold shifts for animals treated with KX1-004, KX1-141, KX1-329 or KX2-328.

In experiment [2] the test system is Guinea pigs, cisplatin-induced hearing loss. As to the kind of experiment: Protection against cisplatin-induced hearing loss. The following applies: guinea pig; subcutaneous, prior to cisplatin; FIG. 15. The format is in vivo. The procedure:
The effects of high level noise and ototoxic drugs, such as cisplatin or the class of aminoglycosides, share several common features in the inner ear. First, the noise and/or drugs alter the free radi cal/anti oxidant levels in the cochlea (inner ear). […] Guinea pigs (N=7) were used in studies of cisplatin-induced hearing loss. The animals' hearing sensitivity was measured using standard electrophysical techniques before the experimental manipulation. […] Animals were anesthetized and treated with cisplatin. Subsequently, the animals' hearing was tested to determine evoked potential threshold shifts.
Animals were treated subcutaneously with KX1-004 prior to the cisplatin-induced hearing loss.

Experiment [3] has as its system HT29 cell line (NCI standard human colon carcinoma cell line). As to the kind of experiment: BrdU cell growth inhibition, HT-29. The format is cell-based. The note with it: HT29 cells. The procedure:
(§1) The GI50s for several of the compounds of the invention were assayed as described herein.
The HT29 cell line is a NCI standard human colon carcinoma cell line. […] HT29 cells were routinely cultured in McCoy's 5A medium supplemented with Fetal Bovine Serum (1.5% v/v) and L-glutamine (2 mM).
(§2) In the BrdU Assay for cell growth inhibition, quantitation of cell proliferation was based on the measurement of BrdU incorporation during DNA synthesis. The Cell Proliferation ELISA BrdU assay kit (colorimetric) was obtained from Roche Applied Science and performed as per vendor instructions.
(§3) The growth inhibition (GI) is determined from the formula GI=(T0-Tn×100/T0−CONn) where T0 is the BrdU growth of untreated cells at time “0”, Tn is the BrdU growth of treated cells at day “n” and CONn is the control BrdU growth of control cells at day “n”. The GI50 was extrapolated and the data plotted using XL-Fit 4.0 software.
(§4) For 96 well culture plate experiments, c-Src 3T3 medium was supplemented with 10 mM HEPES buffer. HT-29 cells were seeded in standard tissue culture 96-well plates and c-Src 3T3 cells were seeded in 96-well plates coated with Poly-D-lysine (BIOCOAT™). To increase CO2 diffusion, c-Src 3T3 96-well plates were incubated with their lids raised by 2 mm using sterile rubber caps.
(§5) Seeded 96 well plates were allowed to attach overnight for 18-24 hours, either at 37° C. and 5% CO2 for HT-29 or at 37° C. and 10% CO2 for c-Src 3T3. Approx 18-24 hours after seeding, the initial growth of cells (To) was determined for untreated cells using the BrdU assay. Samples were reconstituted in DMSO at 20 mM and intermediate dilutions made using DMEM containing 10% FBS. The final assay concentrations were 1.5% for FBS and 0.05% for DMSO. Samples were added as 10 μL aliquots in triplicate and plates were incubated as above for 72 hours. Negative (vehicle) and positive controls (e.g., AZ (KX-328)) were included. Plates were assayed for BrdU and the data analyzed as above for GI50. […]

Experiment [4] relates to c-Src 3T3 cells (NIH 3T3 transfected with human c-Src 527F). As to the kind of experiment: BrdU cell growth inhibition, c-Src 3T3. It is filed as cell-based, mouse. Here is the method: as §1
The c-Src 3T3 is a mouse fibroblast NIH 3T3 normal cell line that has been transfected with a point-mutant of human c-Src wherein tyrosine 527 has been converted to a phenylalanine. This mutation results in “constitutively active” c-Src because phosphorylation on tyrosine 527 results in auto-inhibition of Src by having it fold back on its own SH2 domain. With a Phe there, this phosphorylation can't occur and therefore auto-inhibition can't occur. Thus, the always fully active mutant Src then converts the normal mouse fibroblasts into rapidly growing tumor cells. Since the hyperactive Src is the main factor driving growth in these cells (particularly when cultured under low growth serum conditions), compounds active in blocking this growth are thought to work by blocking Src signaling (e.g. as a direct Src kinase inhibitor or as an inhibitor acting somewhere else in the Src signaling cascade). The cells were routinely cultured in DMEM supplemented with Fetal Bovine Serum (2.0% v/V), L-glutamine (2 mM) and Sodium Pyruvate (1 mM).
as §2, §3, §4
as §5, with “Negative (vehicle) and positive controls (e.g., AZ (KX-328)) were included.” left out

Experiment [5] deals with osteoclast precursors derived from spleen cells. As to the kind of experiment: Effect on osteoclast formation. It is filed as cell-based. The note with it: 5 days, RANKL and M-CSF. Here is the method: To determine the effect of the compounds on osteoclast formation, the compounds were added to osteoclast precursors derived from spleen cells. For the generation of spleen-derived osteoclasts, spleen cells comprising osteoclast precursors were treated with Rapamycin, KX1-141, KX2-328 (Astrazeneca compound), or KX1-329 for 5 days in the presence of receptor activator of nuclear factor-KB ligand (RANKL) and macrophage colony-stimulating factor (M-CSF). In in vitro murine or human osteoclast models, soluble RANKL enables osteoclast precursors to differentiate in the presence of M-CSF (Quinn, et al.; 1998, Endocrinology, 139, 4424-4427; Jimi, et al.; 1999, J. Immunol., 163, 434-442). The untreated control cells were incubated in the presence of RANKL and M-CSF alone. Rapamycin was used as a positive control for the inhibition of osteoclast formation.
For generating spleen-derived osteoclasts, spleen cells were treated as described above. […] Cells were then stained with the osteoclast marker, tartrate-resistant acid phosphatase (TRAP) to visualize differentiated cells. The numbers of TRAP-positive osteoclasts were counted.

A further experiment has as its system osteoclasts. Description: Effect on osteoclast survival. The format is cell-based. The following applies: 48 hours, RANKL and M-CSF. The procedure: To determine the effect of the compounds on osteoclast survival, osteoclasts were treated with Rapamycin, KX1-141, KX2-328, or KX1-329 for 48 hours in the presence of RANKL and M-CSF. The untreated, control cells were incubated in the presence of RANKL and M-CSF alone. Rapamycin was used as a positive control for the inhibition of osteoclast survival.
As described above, osteoclasts were treated with Rapamycin, KX1-141, KX2-328, or KX1-329 for 48 hours in the presence of RANKL and M-CSF. […] Cells were then stained with TRAP and the number of TRAP-positive osteoclasts were counted.

For experiment [6], the system named is osteoclasts on bone slices. Description: Effect on bone resorption in vitro (bone slices). The format is cell-based. The procedure: To determine the effects of the compounds on osteoclast formation on bone slices, the bone slices were treated with Rapamycin, KX1-141, KX2-328, or KX1-329. […] The number of osteoclasts on the bone slices were counted.
During the resorption of bone, osteoclasts form resorption pits. To determine the effects of the compounds on resorption pit formation on bone slices, the bone slices were treated with Rapamycin, KX1-141, KX2-328, or KX1-329, as described above. […] The number of resorption pits on the bone slices was determined.
Bone slices were treated as indicated above. […] The bone slices were then stained with TRAP.
Bone slices were treated as indicated above. […] The bone slices were stained with Toluidine Blue to reveal resorption pits, which are indicators of osteoclast-mediated resorption of bone.

For KX1-004, the “average dB threshold shifts of treated ears vs control” value in experiment [1] is recorded as “lower”. Moreover, the “protection against cisplatin-induced hearing loss (median CAP thresholds)” value in experiment [2] is “protected against cisplatin-induced hearing loss”.
For `CC(C)COc1cc(F)cc(CNC(=O)Cc2ccc(-c3ccc(OCCN4CCCCC4)cc3)cn2)c1` [KX2-386], the “GI50 (HT29)” value in experiment [3] was “inactive (HT-29)”.
As for `CC(C)COc1cc(F)cc(CNC(=O)Cc2ccc(-c3ccc(OCCN4CCOCC4)cc3)cn2)c1` [KX2-387], in experiment [4], the “GI50 (c-Src 3T3)” value is “inactive (c-Src 3T3);”.
Take `O=C(Cc1ccc(-c2ccccc2)cn1)NCc1cccc(F)c1` [KX1-329]: the “average dB threshold shifts of treated ears vs control” value in experiment [1] was “lower”. Further, the “number of TRAP-positive osteoclasts vs untreated control (formation)” value in experiment [5] (FIG. 17) is reported as “reduced the number of TRAP-positive osteoclasts”. Moreover, the “formation of osteoclasts vs untreated control” value in experiment [5] (stained, FIG. 16) is “inhibited the formation of osteoclasts”. The “survival of osteoclasts vs untreated control” value in the experiment with osteoclasts (FIG. 18) is “inhibited the survival of osteoclasts”. In the experiment on osteoclasts (FIG. 19), the “number of TRAP-positive osteoclasts vs untreated control (survival)” value is “reduced the number of TRAP-positive osteoclasts”. The “number of osteoclasts on the bone slices vs untreated control” value in experiment [6] (FIG. 20A) is on record as “reduced the number of osteoclasts on the bone slices”. Moreover, the “number of resorption pits on the bone slices vs untreated control” value in experiment [6] (FIG. 20B) is on record as “reduced the number of resorption pits”; in experiment [6] (Toluidine Blue stain, FIG. 21B), “reduced the number of resorption pits”. For the same compound, in experiment [6] (TRAP stain, FIG. 21A), the “number of TRAP-positive osteoclasts on the bone slices vs untreated control” value is given as “reduced the number of TRAP-positive osteoclasts”.
For `CCOc1ccc(-c2ccc(CC(=O)NCc3cccc(F)c3)nc2)c(OCCN2CCN(C)CC2)c1` [KX2-384], the “GI50 (HT29)” value in experiment [3] was “inactive (HT-29)”.
As for `O=C(Cc1ccc(-c2ccccc2)c[n+]1[O-])NCc1cccc(F)c1` [KX1-329 N-oxide], the “GI50 (HT29)” value in experiment [3] was “inactive (HT-29)”. Further, in experiment [4], the “GI50 (c-Src 3T3)” value is “inactive (c-Src 3T3);”.
In the case of `CCOc1ccc(-c2ccc(CC(=O)NCc3cccc(F)c3)nc2)c(OCCN2CCCCC2)c1` [KX2-389], in experiment [4], the “GI50 (c-Src 3T3)” value is listed as “Inactive (c-Src 3T3);”.
Turning to `CN1CCN(Cc2ccc(-c3ccc(CC(=O)NCc4cccc(F)c4)nc3)cc2)CC1` [KX2-376], the GI50 in experiment [4] (NIH3T3) is over 16 nM.
